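Each compound was tested at five concentrations against cells in 96-well plates for 48 hours. Abbreviation: GI50, concentration required for 50% inhibition of growth. TGI marks complete inhibition of growth.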
How the values were obtained:
Assay in all cases: DTP human tumour cell line panel, 48 h
A549 NSCLC = test system: A549 NSCLC
T-47D breast = test system: T-47D breast
DU-145 prostate = test system: DU-145 prostate
SF-295 CNS = test system: SF-295 CNS
MALME-3M melanoma = test system: MALME-3M melanoma
MDA-MB-435 = test system: MDA-MB-435
HS 578T breast = test system: HS 578T breast
TK-10 renal = test system: TK-10 renal
HCT-15 colon = test system: HCT-15 colon
MCF7 breast = test system: MCF7 breast
OVCAR-5 ovarian = test system: OVCAR-5 ovarian
ACHN renal = test system: ACHN renal
SN12C renal = test system: SN12C renal
U251 CNS = test system: U251 CNS
OVCAR-4 ovarian = test system: OVCAR-4 ovarian
PC-3 prostate = test system: PC-3 prostate
SK-MEL-28 melanoma = test system: SK-MEL-28 melanoma
HT29 colon = test system: HT29 colon
NCI-H460 lung = test system: NCI-H460 lung
UO-31 renal = test system: UO-31 renal
NCI-H226 lung = test system: NCI-H226 lung
NCI-H522 lung = test system: NCI-H522 lung
786-0 renal = test system: 786-0 renal
SF-268 CNS = test system: SF-268 CNS
RPMI-8226 leukemia = test system: RPMI-8226 leukemia
HOP-92 NSCLC = test system: HOP-92 NSCLC
SNB-75 CNS = test system: SNB-75 CNS
IGROV1 ovarian = test system: IGROV1 ovarian
SR leukemia = test system: SR leukemia
HCC-2998 colon = test system: HCC-2998 colon

CC(=O)Nc1nc(-c2ccc(N3CCN(C)CC3)c(NS(=O)(=O)c3ccc(C(F)(F)F)cc3)c2)cs1
GI50 (A549 NSCLC): 7.24 µM | TGI (A549 NSCLC): 16.3 µM | GI50 (T-47D breast): 4.71 µM | TGI (T-47D breast): 13.2 µM | GI50 (DU-145 prostate): 6.51 µM | TGI (DU-145 prostate): 14.5 µM | GI50 (SF-295 CNS): 6.51 µM | TGI (SF-295 CNS): 13.4 µM | GI50 (MALME-3M melanoma): 6.73 µM | TGI (MALME-3M melanoma): 13.5 µM | GI50 (MDA-MB-435): 4.08 µM | TGI (MDA-MB-435): 12.6 µM | GI50 (HS 578T breast): 5.77 µM | TGI (HS 578T breast): 20.2 µM | GI50 (TK-10 renal): 7.04 µM | TGI (TK-10 renal): 14 µM | GI50 (HCT-15 colon): 3.18 µM | TGI (HCT-15 colon): 10.8 µM | GI50 (MCF7 breast): 2.58 µM | TGI (MCF7 breast): 10.6 µM | GI50 (OVCAR-5 ovarian): 7.63 µM | TGI (OVCAR-5 ovarian): 14.7 µM | GI50 (ACHN renal): 4.67 µM | TGI (ACHN renal): 11.1 µM | GI50 (SN12C renal): 6.19 µM | TGI (SN12C renal): 12.7 µM | GI50 (U251 CNS): 7.52 µM | TGI (U251 CNS): 15 µM | GI50 (OVCAR-4 ovarian): 6.72 µM | TGI (OVCAR-4 ovarian): 14.6 µM | GI50 (PC-3 prostate): 6.33 µM | TGI (PC-3 prostate): 17.2 µM | GI50 (SK-MEL-28 melanoma): 7.72 µM | TGI (SK-MEL-28 melanoma): 14.7 µM | GI50 (HT29 colon): 4.77 µM | TGI (HT29 colon): 16 µM | GI50 (NCI-H460 lung): 6.77 µM | TGI (NCI-H460 lung): 14.8 µM | GI50 (UO-31 renal): 6.13 µM | TGI (UO-31 renal): 12.6 µM | GI50 (NCI-H226 lung): 8.25 µM | TGI (NCI-H226 lung): 19.1 µM | GI50 (NCI-H522 lung): 3.62 µM | TGI (NCI-H522 lung): 10.8 µM | GI50 (786-0 renal): 5.18 µM | TGI (786-0 renal): 12.6 µM | GI50 (SF-268 CNS): 6.99 µM | TGI (SF-268 CNS): 16.4 µM | GI50 (RPMI-8226 leukemia): 2.16 µM | TGI (RPMI-8226 leukemia): 53 µM | GI50 (HOP-92 NSCLC): 5.34 µM | TGI (HOP-92 NSCLC): 14.1 µM | GI50 (SNB-75 CNS): 2.44 µM | TGI (SNB-75 CNS): 9.48 µM | GI50 (IGROV1 ovarian): 6.41 µM | TGI (IGROV1 ovarian): 13 µM | GI50 (SR leukemia): 1.98 µM | TGI (SR leukemia): 37.6 µM | GI50 (HCC-2998 colon): 7.51 µM

From PubChem BioAssay (NCI)
